EC50 and Emax data for ten compounds are collected here from patent publication US20240336572A1, “SUBSTITUTED INDAZOLE PROPIONIC ACID DERIVATIVE COMPOUNDS AND USES THEREOF” (Pfizer Inc., priority 2023, published 2024).

The target of one assay is T1, AMPK 111 (Homo sapiens, UniProt Q13131+Q9Y478).
T1 construct: open reading frames encoding the full-length α1, β1 and δ1 subunits of human AMPK; made in house; host or cells: E. coli BL21-CodonPlus (DE3)-RIPL, pET-14b
Kind of assay: Biochemical profiling of AMPK activators by AMPK111 (HTRF/TR-FRET assay, SAMS peptide, PP2A dephosphorylation protection). The following applies: for EC50: phosphorylated AMPK 111 (α1β1δ1 as printed), 11 point dilution, duplicate, 4-parameter fit; for Emax: phosphorylated AMPK 111, maximal activation. Here is the method:
(§1) The biochemical EC50 (half-maximal concentration required for full activation) of compounds for the activation of AMPK was evaluated by HTRF assay using LANCE Ultra ULight-Acetyl-CoA Carboxylase (SAMS) peptide (commercially available, Perkin Elmer catalog TRF0133-M).
Following a fifteen-minute room temperature incubation, 5 μL of 30 nM protein phosphatase PP2A (isolation detailed above) diluted in the assay buffer was added to the plate, to dephosphorylate pThr172 of AMPK. […] The reaction was terminated after 60 minutes incubation at room temperature, by the addition of 5 μL of stop and detection cocktail, which consisted of 1× Perkin Elmer Lance buffer (Perkin Elmer catalog number CR97-100), 40 mM EDTA (Thermo Fisher catalog number BP2482-100), and 2 nM Eu-anti-Acetyl CoA Carboxylase [pSer70] antibody (Perkin Elmer, TRF0208-M).
In general terms: Time-resolved FRET reads energy transfer from a long-lived donor to a nearby acceptor.

The target in the next assay is T2, AMPK 221 (Homo sapiens, UniProt O43741+P54646).
T2 construct: open reading frames encoding the full-length α2, β2 and δ1 subunits of human AMPK; made in house; host or cells: E. coli BL21-CodonPlus (DE3)-RIPL, pET-14b
Kind of assay: Biochemical profiling of AMPK activators by AMPK221 (HTRF/TR-FRET assay, SAMS peptide, PP2A dephosphorylation protection). The following applies: for EC50: phosphorylated AMPK 221 (α2β2δ1), 11 point dilution, duplicate, 4-parameter fit; for Emax: phosphorylated AMPK 221, maximal activation. As to the method: as §1
The reaction was terminated after 60 minutes incubation at room temperature by the addition of 5 μL of stop and detection cocktail, which consisted of 1× Perkin Elmer Lance buffer (Perkin Elmer catalog number CR97-100), 40 mM EDTA (Thermo Fisher catalog number BP2482-100), and 2 nM Eu-anti-Acetyl CoA Carboxylase [pSer70] antibody (Perkin Elmer, TRF0208-M). Plates were spun at 1000 RPM, 10 seconds.

T2 sequence (P54646 whole entry): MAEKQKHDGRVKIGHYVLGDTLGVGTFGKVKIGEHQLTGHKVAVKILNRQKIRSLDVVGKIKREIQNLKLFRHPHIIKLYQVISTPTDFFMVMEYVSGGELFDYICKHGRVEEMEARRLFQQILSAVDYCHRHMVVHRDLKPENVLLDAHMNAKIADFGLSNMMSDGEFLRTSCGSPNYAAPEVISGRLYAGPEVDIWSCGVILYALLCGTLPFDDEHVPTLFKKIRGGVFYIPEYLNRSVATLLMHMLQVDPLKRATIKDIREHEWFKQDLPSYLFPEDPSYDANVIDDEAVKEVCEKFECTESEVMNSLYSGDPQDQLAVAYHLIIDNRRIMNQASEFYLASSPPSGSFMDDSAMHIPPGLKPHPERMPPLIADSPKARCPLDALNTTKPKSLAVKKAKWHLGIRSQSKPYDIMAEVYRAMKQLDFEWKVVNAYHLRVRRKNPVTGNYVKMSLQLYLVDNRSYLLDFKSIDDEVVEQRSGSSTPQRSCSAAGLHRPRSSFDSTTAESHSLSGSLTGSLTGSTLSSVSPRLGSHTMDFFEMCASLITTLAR
T2 sequence (O43741 whole entry): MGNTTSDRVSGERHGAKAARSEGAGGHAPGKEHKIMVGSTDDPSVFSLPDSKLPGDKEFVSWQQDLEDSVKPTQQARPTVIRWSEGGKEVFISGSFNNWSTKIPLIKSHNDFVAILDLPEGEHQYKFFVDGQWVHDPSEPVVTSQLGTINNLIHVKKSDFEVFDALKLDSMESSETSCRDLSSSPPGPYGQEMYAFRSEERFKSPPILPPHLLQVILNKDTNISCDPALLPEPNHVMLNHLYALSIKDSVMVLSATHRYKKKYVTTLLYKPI
T2 sequence (P54619 whole entry partner): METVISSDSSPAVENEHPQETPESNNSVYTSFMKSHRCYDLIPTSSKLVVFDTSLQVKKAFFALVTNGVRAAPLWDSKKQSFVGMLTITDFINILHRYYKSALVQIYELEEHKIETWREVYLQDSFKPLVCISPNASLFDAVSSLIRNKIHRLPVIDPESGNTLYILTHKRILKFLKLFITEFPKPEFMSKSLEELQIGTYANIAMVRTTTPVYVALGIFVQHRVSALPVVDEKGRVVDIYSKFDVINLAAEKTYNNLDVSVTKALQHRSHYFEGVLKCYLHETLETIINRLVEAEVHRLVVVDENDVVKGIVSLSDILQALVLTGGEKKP
T1 sequence (Q13131 whole entry): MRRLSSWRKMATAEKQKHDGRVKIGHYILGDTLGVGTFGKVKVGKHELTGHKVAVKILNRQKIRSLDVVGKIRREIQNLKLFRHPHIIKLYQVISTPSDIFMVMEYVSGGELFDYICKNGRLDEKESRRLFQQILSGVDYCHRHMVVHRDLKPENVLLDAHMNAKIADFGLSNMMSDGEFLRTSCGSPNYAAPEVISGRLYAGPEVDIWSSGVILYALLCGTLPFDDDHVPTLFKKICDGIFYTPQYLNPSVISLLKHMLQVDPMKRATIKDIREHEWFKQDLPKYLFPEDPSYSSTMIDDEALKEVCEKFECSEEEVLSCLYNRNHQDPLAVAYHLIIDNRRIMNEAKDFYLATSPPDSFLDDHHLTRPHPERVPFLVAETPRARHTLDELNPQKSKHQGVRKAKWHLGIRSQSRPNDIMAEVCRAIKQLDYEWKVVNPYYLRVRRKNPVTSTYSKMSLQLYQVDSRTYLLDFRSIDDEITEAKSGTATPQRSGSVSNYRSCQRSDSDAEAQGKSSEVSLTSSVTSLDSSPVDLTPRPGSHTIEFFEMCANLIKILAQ
T1 sequence (Q9Y478 whole entry): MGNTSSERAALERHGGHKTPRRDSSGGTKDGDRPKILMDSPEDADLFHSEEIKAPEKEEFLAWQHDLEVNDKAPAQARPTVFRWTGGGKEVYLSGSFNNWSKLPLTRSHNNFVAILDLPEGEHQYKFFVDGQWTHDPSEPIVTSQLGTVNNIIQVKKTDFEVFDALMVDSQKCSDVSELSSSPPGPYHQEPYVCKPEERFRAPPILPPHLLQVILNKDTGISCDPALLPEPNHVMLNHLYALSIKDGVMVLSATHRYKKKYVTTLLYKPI
T1 sequence (P54619 whole entry partner): as the sequence (P54619 whole entry partner) above

Take `O=C(O)CCc1n[nH]c2cc(Cl)c(-c3ccc(-c4c(O)cccc4Cl)cc3)cc12` [Example 46, 3-(6-chloro-5-(2′-chloro-6′-hydroxy-[1,1′-biphenyl]-4-yl)-1H-indazol-3-yl)propanoic acid]: on AMPK 111, the EC50 worked out at 20 nM and the Emax was 82%. On AMPK 221, this compound gave an EC50 of 267 nM and an Emax of 59%.
Regarding `O=C(O)CCc1n[nH]c2cc(Cl)c(-c3ccc(-c4ccc(F)cc4O)cc3)cc12` [Example 47, 3-(6-chloro-5-(4′-fluoro-2′-hydroxy-[1,1′-biphenyl]-4-yl)-1H-indazol-3-yl)propanoic acid], at AMPK 111, the EC50 was 113 nM and the maximum response (Emax) worked out at 83%. At AMPK 221, this compound came in with a concentration giving a half-maximal response (EC50) of 282 nM and an Emax of 59%.
On AMPK 111, `Cc1ccccc1-c1ccc(-c2cc3c(CCC(=O)O)n[nH]c3cc2Cl)cc1` [Example 48, 3-(6-chloro-5-(2′-methyl-[1,1′-biphenyl]-4-yl)-1H-indazol-3-yl)propanoic acid] displayed a 50% effective concentration (EC50) of 365 nM and an Emax of 43%. At AMPK 221, this compound displayed an EC50 of 367 nM and an Emax of 9%.
At AMPK 111, `COc1cc(O)c(-c2ccc(-c3cc4c(CCC(=O)O)n[nH]c4cc3Cl)cc2)c(Cl)c1` [Example 49, 3-(6-chloro-5-(2′-chloro-6′-hydroxy-4′-methoxy-[1,1′-biphenyl]-4-yl)-1H-indazol-3-yl)propanoic acid] had a half-maximal effective concentration (EC50) of 96 nM and a maximal effect (Emax) of 74%. At AMPK 221, this compound came in with a 50% effective concentration (EC50) of 325 nM and a maximal effect (Emax) of 61%.
The matching figures for `O=C(O)CCc1n[nH]c2cc(Cl)c(-c3ccc(-c4c(O)cccc4F)cc3)cc12` [Example 50, 3-(6-chloro-5-(2′-fluoro-6′-hydroxy-[1,1′-biphenyl]-4-yl)-1H-indazol-3-yl)propanoic acid]: 153 nM, 76%, 337 nM and 55%.
Regarding `O=C(O)CCc1n[nH]c2cc(Cl)c(-c3ccc(-c4ccccc4)cc3)cc12` [Example 51, 3-(5-([1,1′-biphenyl]-4-yl)-6-chloro-1H-indazol-3-yl)propanoic acid], on AMPK 111, a half-maximal effect (EC50) was put at 312 nM and the Emax was 71%. On AMPK 221, it took 355 nM to reach a half-maximal effect (EC50) and the Emax was found to be 22%.
Turning to `COc1ccc(-c2ccc(-c3cc4c(CCC(=O)O)n[nH]c4cc3Cl)cc2)c(O)c1OC` [Example 52, 3-(6-chloro-5-(2′-hydroxy-3′,4′-dimethoxy-[1,1′-biphenyl]-4-yl)-1H-indazol-3-yl)propanoic acid], on AMPK 111, the response was half-maximal at 6 nM (EC50) and the maximal effect (Emax) was found to be 85%. On AMPK 221, this compound showed an EC50 of 19 nM and an Emax of 65%.
On to `Cn1c(O)nc2cc(-c3ccc(-c4cc5c(CCC(=O)O)n[nH]c5cc4Cl)cc3)ccc21` [Example 53, 3-(6-chloro-5-(4-(2-hydroxy-1-methyl-1H-benzo[d]imidazol-5-yl)phenyl)-1H-indazol-3-yl)propanoic acid], for which, at AMPK 111, a half-maximal effect (EC50) was put at 218 nM and the Emax amounted to 69%. On AMPK 221, this compound returned a half-maximal effective concentration (EC50) of 644 nM and an Emax of 55%.
Turning to `O=C(O)CCc1n[nH]c2cc(Cl)c(-c3ccc(-c4ccc5c(c4)CS(=O)(=O)C5)cc3)cc12` [Example 54, 3-(6-chloro-5-(4-(2,2-dioxido-1,3-dihydrobenzo[c]thiophen-5-yl)phenyl)-1H-indazol-3-yl)propanoic acid], the figures for the EC50 on AMPK 111 and at AMPK 221 were 217 nM and 1010 nM, respectively. Further, the maximal response (Emax) amounted to 61% at AMPK 111 and 64% at AMPK 221.
With `N#Cc1cccc(-c2ccc(-c3cc4c(CCC(=O)O)n[nH]c4cc3Cl)cc2)c1O` [Example 55, 3-(6-chloro-5-(3′-cyano-2′-hydroxy-[1,1′-biphenyl]-4-yl)-1H-indazol-3-yl)propanoic acid], on AMPK 111, it took 208 nM to reach a half-maximal effect (EC50) and the maximal response (Emax) came to 45%. Further, at AMPK 221, the EC50 stood at 389 nM and the Emax was found to be 38%.

As usually defined, the EC50 is the concentration needed to bring the measured effect to its halfway point. The term Emax denotes the greatest response seen or fitted, relative to the assay's reference.
